# Test results as given in patent US8956824B2, “Methods for identifying allosteric modulators of ship polypeptides” (British Columbia Cancer Agency Branch, priority 2006, dated 2015).
# “Also recorded” adds a separate entry of the source.
# Columns and labels:
# LNCaP cells = assay: PKB phosphorylation in LNCaP cells; type: cell-based; conditions: 30 min treatment; cells do not express SHIP1
# Description: The non-hemopoietic, prostate cancer LnCAP cell line was treated with AQX-016A or LY294002 for 30 min and cell lysates analyzed for phospho-PKB-Thr 308 or phospho-PKB 473 as described in the Examples. AQX-016A (Molecular Weight 328.24) concentration is indicated in μM.
# SHIP1 C2 domain [1] = biological target: T1, SHIP1 C2 domain (Mus musculus, UniProt Q9ES52); assay: Scintillation proximity assay, C2 domain; type: binding; conditions: C2 domain 10 nM, 5 μCi
# T1 construct: Recombinant SHIP1 C2 domain (amino acid residues 725 to 863); made in house; host or cells: E. coli, pET28C
# T1 sequence (Q9ES52 725-863): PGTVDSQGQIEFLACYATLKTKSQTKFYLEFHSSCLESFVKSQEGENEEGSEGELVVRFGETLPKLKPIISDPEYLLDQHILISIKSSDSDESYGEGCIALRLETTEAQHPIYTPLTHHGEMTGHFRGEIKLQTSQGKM
# Description: (§1) Scintillation Proximity Assays AQX-MN100 was radiolabeled with tritium by GE Healthcare (Piscataway, N.J.) to a specific activity of 42 Ci/mmole. Copper chelate (His-Tag) YSi YSi SPA Scintillation Beads (GE Healthcare ,Piscataway, NJ) were diluted in 0.25% BSA/TBS to 1.5 mg/mL and recombinant, His6-tagged protein added at the indicated concentrations: wild-type (1 pM), ΔC2 SHIP enzyme (1 pM) or C2 domain (10 nM). Protein was allowed to bind 1 h at 23° C., and 250 μg of beads were aliquoted per well of a 96-well plate. 5 μCi of [3H]-AQX-MN100 was added per well, the plate gently agitated for 30 min and the amount of bead associated radioactivity quantified by counting in a Wallac BETAPLATE™ plate scintillation counter. Results are representative of 3 independent experiments.
# SHIP1 C2 domain [2] = biological target: T1, SHIP1 C2 domain; assay: Protein lipid overlay assay, C2 domain; type: binding; conditions: 200 μM AQX-MN100, 30 min pre-incubation
# Description: Protein Lipid Overlay Assays Protein Lipid Overlay assays were performed essentially as described (23) with minor modifications. Lyophilized phosphatidylinositol-3,4-bisphosphate diC16 (PIP2, Echelon Biosciences, Salt Lake City, Utah) was reconstituted in a 2:1.8 solution of methanol and water. PVDF membranes (Millipore, Missisauga, Ont) were initially wetted in methanol for 1 minute, and washed 3×5 min with water, and gently agitated in TBST buffer (20 mM Tris pH 7.5, 0.15 M NaCl (TBS) with 0.05% Tween 20) at 23° C. overnight. The treated membranes were air-dried and dilutions of reconstituted lipids were spotted in 1 μl aliquots to give the indicated amount of PIP2 per membrane spot. The membranes were dried completely and blocked with blocking buffer (3% BSA in TBS with 0.05% NaN3) for 1 h at 23° C. on a gentle shaker. Purified, recombinant C2 domain was diluted into blocking buffer (5 μM final) and treated with 200 μM AQX-MN100 or EtOH control for 30 min at 23° C. prior to overnight incubation with the PIP2 spotted membranes. The membranes were washed 10 times over 50 min in TBST buffer at 23° C. and were incubated with anti-His6 mouse IgG (Qiagen, Missisauga, Ont) for 1 hour at 23° C. with gentle rocking. […] The membranes were washed 3 times in TBST over 15 min at 23° C. and the bound proteins were detected and quantified on a Li-Cor Odyssey scanner (Lincoln, Nebr.). […]
# [3] = biological target: T2, C2 domain deleted (ΔC2) SHIP1 enzyme (Mus musculus, UniProt Q9ES52, DEL725-860/G861A/K862A/M863A); assay: Scintillation proximity assay, ΔC2 SHIP1; type: binding; conditions: 5 μCi
# T2 construct: Full length, wild-type SHIP1 enzyme (wt) or SHIP1 enzyme in which the PH or C2 domains were deleted; made in house; 293T cells are stated only for the wild-type enzyme
# T2 sequence (Q9ES52 with tags, fused parts or gaps DEL725-860/G861A/K862A/M863A limits assumed): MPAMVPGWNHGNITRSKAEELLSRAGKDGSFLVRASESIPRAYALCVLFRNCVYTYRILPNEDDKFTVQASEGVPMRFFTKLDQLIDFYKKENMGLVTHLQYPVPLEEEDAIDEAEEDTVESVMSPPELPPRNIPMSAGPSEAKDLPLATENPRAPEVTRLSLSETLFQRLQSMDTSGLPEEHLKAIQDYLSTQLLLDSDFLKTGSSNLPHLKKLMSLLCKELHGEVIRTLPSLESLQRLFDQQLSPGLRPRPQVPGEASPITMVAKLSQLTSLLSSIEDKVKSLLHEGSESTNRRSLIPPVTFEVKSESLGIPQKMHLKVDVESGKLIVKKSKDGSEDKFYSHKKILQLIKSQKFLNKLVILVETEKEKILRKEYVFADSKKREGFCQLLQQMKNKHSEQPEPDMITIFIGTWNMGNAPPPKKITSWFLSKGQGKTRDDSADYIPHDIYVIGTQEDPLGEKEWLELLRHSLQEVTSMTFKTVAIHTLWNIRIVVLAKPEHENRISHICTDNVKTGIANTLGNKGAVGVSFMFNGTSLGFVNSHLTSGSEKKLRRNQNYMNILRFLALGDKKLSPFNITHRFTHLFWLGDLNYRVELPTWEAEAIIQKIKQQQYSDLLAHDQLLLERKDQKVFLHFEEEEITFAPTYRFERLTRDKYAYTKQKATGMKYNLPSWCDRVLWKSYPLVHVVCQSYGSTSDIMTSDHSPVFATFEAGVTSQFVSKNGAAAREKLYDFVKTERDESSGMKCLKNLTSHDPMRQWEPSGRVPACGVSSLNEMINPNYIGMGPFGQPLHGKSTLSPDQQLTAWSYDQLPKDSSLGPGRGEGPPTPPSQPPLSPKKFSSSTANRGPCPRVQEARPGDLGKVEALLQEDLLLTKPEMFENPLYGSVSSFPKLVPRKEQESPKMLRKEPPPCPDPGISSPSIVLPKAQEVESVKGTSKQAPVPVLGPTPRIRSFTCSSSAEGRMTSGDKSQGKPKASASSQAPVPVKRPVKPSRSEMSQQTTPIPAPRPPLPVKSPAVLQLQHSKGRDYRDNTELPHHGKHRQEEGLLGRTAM
# Description: as §1
Structure (SMILES),PKB phosphorylation in LNCaP cells (LNCaP cells),binding of [3H]-AQX-MN100 to recombinant C2 domain (SHIP1 C2 domain [1]),"inhibition of C2 domain binding to phosphatidylinositol lipid (PI-3,4-P2 / PIP3) (SHIP1 C2 domain [2])",binding of [3H]-AQX-MN100 to SHIP1 lacking its C2 domain [3]
Cc1cc(O)c(O)c2c1[C@]1(C)CC[C@H]3C(C)(C)CCC[C@]3(C)[C@H]1C2 [AQX-016A],had no effect; also recorded: but not AQX-016A inhibits PKB phosphorylation,–,–,–
Cc1cc(O)cc2c1[C@]1(C)CC[C@H]3C(C)(C)CCC[C@]3(C)[C@H]1C2 [AQX-MN100],–,could directly bind; also recorded: reproducibly observed to bound; also recorded: binds,"could compete with PI-3,4-P2 for binding; also recorded: inhibits the binding of the C2; also recorded: is inhibited",C2 domain is required for SHIP1 to bind; also recorded: requires the C2 domain to bind
